# “And” between values parts separate entries of the source, which are not always exact repeats. Equal entries are not always repeated.
# Experiments:
# Experiment in all cases: KINOMEscan competition binding
# Conditions in all cases: compound 10.0 µM
# [1] = molecular target: CSK (human) (UniProt P41240)
# [2] = molecular target: MAPKAPK5 (human) (UniProt Q8IW41)
# [3] = molecular target: CSF1R (human) (UniProt P07333)
# [4] = molecular target: TESK1 (human) (UniProt Q15569)
# [5] = molecular target: RIOK2 (human) (UniProt Q9BVS4)
# RIOK2 (human), sequence (Q9BVS4 whole entry, looked up): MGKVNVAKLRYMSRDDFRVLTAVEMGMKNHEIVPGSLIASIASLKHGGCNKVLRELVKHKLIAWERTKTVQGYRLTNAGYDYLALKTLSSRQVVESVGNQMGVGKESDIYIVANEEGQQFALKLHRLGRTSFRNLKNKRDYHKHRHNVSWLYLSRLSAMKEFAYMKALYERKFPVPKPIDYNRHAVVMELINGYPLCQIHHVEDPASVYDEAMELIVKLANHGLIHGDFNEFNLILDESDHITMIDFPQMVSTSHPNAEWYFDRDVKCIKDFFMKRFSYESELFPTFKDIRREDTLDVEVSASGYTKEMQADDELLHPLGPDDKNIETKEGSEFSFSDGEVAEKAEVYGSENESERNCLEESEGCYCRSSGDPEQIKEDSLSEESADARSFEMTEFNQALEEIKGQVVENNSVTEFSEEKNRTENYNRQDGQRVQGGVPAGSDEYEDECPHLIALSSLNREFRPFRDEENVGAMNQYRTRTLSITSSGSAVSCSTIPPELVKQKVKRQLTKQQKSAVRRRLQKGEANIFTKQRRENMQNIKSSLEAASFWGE
# [6] = molecular target: INSRR (human) (UniProt P14616)
# [7] = molecular target: BMPR1B (human) (UniProt O00238)
# [8] = molecular target: ACVR2A (human) (UniProt P27037)
# [9] = molecular target: LIMK1 (human) (UniProt P53667)
# LIMK1 (human), sequence (P53667 whole entry, looked up): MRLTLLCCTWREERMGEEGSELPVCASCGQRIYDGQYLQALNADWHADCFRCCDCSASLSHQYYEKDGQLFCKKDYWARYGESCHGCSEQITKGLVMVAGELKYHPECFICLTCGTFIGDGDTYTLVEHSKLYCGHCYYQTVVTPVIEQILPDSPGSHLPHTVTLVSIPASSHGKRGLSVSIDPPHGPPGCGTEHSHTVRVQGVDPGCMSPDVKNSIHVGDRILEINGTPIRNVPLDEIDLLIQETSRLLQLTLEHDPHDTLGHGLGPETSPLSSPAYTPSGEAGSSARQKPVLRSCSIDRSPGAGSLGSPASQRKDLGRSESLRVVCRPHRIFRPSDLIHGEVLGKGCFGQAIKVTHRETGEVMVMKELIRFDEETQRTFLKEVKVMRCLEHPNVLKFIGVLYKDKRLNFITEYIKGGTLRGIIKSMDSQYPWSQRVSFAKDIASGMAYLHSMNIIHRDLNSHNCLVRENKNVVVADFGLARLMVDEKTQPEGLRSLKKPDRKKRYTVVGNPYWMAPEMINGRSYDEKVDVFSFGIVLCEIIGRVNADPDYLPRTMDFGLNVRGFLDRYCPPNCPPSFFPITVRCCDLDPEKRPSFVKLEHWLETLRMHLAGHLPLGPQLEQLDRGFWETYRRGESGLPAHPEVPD
# [10] = molecular target: SIK1 (human) (UniProt P57059)
# SIK1 (human), sequence (P57059 whole entry, looked up): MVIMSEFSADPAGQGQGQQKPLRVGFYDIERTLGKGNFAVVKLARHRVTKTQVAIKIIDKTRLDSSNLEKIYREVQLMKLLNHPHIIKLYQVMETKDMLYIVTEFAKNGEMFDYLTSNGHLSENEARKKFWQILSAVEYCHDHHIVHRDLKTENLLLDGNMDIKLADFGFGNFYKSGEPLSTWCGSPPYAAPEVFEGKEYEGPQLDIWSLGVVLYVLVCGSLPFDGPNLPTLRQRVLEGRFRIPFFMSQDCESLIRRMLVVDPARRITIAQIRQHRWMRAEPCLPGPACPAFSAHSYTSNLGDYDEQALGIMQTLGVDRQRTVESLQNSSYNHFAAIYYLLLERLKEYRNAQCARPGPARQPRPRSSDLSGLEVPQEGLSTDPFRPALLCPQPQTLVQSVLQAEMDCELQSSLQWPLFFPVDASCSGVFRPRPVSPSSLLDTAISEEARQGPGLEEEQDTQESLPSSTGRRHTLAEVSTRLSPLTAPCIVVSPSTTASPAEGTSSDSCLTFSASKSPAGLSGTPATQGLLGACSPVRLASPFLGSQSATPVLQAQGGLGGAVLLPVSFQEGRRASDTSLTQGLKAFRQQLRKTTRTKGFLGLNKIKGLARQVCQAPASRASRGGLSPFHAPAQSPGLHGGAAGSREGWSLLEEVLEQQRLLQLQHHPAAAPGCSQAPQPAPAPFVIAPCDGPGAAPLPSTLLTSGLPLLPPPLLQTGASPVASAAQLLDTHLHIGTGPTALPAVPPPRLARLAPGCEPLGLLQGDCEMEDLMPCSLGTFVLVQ
# [11] = molecular target: DAPK2 (human) (UniProt Q9UIK4)
# DAPK2 (human), sequence (Q9UIK4 whole entry, looked up): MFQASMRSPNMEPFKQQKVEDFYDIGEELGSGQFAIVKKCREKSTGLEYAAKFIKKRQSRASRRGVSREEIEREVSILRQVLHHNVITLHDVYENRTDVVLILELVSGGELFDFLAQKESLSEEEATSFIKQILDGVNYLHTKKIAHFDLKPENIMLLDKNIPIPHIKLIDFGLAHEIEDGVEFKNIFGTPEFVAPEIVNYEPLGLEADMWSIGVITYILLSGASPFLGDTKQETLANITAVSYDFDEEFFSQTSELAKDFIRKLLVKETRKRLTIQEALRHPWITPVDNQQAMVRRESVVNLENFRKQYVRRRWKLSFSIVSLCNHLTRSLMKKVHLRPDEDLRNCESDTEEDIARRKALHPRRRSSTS
# [12] = molecular target: ICK (human) (UniProt Q9UPZ9)
# [13] = molecular target: PRKD2 (human) (UniProt Q9BZL6)
# [14] = molecular target: SRPK3 (human) (UniProt Q9UPE1)
# [15] = molecular target: JAK3 JH1 catalytic (human) (UniProt P52333)
# [16] = molecular target: PLK3 (human) (UniProt Q9H4B4)
# PLK3 (human), sequence (Q9H4B4 whole entry, looked up): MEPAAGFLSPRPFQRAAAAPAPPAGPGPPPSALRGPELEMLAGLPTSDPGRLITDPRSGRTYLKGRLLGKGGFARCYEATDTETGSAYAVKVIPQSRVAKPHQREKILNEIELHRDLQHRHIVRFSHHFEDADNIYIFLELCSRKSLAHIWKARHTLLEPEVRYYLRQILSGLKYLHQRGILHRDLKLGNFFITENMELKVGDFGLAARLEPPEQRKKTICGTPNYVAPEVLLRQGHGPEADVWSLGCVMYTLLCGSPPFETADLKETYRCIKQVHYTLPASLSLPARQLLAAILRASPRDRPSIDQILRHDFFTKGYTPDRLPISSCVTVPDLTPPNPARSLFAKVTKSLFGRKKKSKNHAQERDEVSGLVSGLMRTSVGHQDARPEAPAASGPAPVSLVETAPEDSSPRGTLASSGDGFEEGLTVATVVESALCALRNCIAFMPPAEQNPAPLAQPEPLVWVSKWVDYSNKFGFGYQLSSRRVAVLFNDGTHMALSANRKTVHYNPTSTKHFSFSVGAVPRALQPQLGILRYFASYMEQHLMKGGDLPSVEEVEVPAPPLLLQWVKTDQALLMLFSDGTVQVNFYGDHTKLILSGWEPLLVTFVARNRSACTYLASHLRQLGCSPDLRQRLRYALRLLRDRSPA
# [17] = molecular target: JAK2 JH1 catalytic (human) (UniProt O60674)
# [18] = molecular target: PRKD3 (human) (UniProt O94806)
# [19] = molecular target: MAPK6 (human) (UniProt Q16659)
# [20] = molecular target: PRKCQ (human) (UniProt Q04759)
# [21] = molecular target: PRKACA (human) (UniProt P17612)
# [22] = molecular target: STK32A (human) (UniProt Q8WU08)
# [23] = molecular target: PRKCE (human) (UniProt Q02156)
# [24] = molecular target: IGF1R (human) (UniProt P08069)
# IGF1R (human), sequence (P08069 whole entry, looked up): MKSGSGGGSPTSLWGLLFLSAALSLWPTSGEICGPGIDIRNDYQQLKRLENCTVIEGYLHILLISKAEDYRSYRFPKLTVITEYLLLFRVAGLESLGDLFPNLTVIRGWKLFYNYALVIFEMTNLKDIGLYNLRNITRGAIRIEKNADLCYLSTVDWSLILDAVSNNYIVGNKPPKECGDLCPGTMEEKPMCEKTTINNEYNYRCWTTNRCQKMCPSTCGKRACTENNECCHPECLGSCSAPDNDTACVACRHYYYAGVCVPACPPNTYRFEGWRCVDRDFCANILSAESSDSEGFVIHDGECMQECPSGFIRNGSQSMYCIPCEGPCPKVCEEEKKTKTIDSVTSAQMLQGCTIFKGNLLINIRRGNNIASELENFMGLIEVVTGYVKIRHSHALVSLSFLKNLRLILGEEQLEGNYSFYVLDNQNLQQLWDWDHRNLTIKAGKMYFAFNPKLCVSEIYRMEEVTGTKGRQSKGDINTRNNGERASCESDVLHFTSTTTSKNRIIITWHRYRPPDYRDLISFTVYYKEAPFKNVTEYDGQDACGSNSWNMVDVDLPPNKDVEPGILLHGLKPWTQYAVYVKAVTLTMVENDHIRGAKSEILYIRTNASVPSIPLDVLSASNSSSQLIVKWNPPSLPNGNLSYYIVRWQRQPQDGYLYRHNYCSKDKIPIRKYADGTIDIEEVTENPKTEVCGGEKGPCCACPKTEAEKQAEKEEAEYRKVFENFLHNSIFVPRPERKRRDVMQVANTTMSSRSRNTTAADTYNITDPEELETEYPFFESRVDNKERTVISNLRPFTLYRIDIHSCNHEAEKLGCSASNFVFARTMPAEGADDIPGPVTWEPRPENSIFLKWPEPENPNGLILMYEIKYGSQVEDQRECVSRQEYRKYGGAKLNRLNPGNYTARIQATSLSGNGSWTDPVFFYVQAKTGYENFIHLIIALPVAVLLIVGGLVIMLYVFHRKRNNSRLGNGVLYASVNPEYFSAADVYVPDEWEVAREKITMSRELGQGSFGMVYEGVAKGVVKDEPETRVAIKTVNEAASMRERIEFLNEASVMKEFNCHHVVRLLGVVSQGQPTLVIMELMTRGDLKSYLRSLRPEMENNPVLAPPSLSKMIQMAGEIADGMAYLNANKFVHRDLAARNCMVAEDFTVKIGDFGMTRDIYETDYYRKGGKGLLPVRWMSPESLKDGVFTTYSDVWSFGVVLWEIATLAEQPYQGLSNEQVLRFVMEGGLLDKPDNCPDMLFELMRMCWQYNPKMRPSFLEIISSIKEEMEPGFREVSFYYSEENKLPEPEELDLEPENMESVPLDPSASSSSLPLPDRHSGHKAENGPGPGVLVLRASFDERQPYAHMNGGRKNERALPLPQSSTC
# [25] = molecular target: MYO3A (human) (UniProt Q8NEV4)
# [26] = molecular target: PDPK1 (human) (UniProt O15530)
# [27] = molecular target: SGK3 (human) (UniProt Q96BR1)
# [28] = molecular target: PIK3C2G (human) (UniProt O75747)
# [29] = molecular target: NEK9 (human) (UniProt Q8TD19)
# [30] = molecular target: NEK11 (human) (UniProt Q8NG66)
# [31] = molecular target: TGFBR2 (human) (UniProt P37173)
# [32] = molecular target: ADCK3 (human) (UniProt Q8NI60)
# [33] = molecular target: PRKAA2 (human) (UniProt P54646)
# [34] = molecular target: MAPK14 (human) (UniProt Q16539)
# [35] = molecular target: STK39 (human) (UniProt Q9UEW8)
# [36] = molecular target: MTOR (human) (UniProt P42345)
# [37] = molecular target: TIE1 (human) (UniProt P35590)
# [38] = molecular target: MAP2K6 (human) (UniProt P52564)
# MAP2K6 (human), sequence (P52564 whole entry, looked up): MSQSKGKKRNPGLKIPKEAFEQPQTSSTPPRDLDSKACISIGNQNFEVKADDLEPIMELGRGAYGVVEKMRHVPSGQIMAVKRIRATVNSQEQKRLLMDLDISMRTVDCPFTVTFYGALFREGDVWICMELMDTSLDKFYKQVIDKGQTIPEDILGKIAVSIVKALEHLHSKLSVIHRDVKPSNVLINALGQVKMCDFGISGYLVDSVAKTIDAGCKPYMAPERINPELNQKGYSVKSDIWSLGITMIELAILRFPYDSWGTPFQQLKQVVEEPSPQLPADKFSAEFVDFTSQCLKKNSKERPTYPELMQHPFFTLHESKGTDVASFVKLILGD
# [39] = molecular target: CDK3 (human) (UniProt Q00526)
# CDK3 (human), sequence (Q00526 whole entry, looked up): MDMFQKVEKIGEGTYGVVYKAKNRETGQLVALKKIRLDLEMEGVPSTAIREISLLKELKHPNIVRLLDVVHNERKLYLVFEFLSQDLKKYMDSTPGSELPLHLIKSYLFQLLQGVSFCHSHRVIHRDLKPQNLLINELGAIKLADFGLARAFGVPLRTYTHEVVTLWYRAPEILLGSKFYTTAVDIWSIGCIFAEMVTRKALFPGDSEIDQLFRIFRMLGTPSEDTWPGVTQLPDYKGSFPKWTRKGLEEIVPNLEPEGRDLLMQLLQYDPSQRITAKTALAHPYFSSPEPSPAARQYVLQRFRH
# [40] = molecular target: AKT2 (human) (UniProt P31751)
Structure (SMILES),"kinase still bound, per cent of control [1]","kinase still bound, per cent of control [2]","kinase still bound, per cent of control [4]","kinase still bound, per cent of control [5]","kinase still bound, per cent of control [6]","kinase still bound, per cent of control [7]","kinase still bound, per cent of control [8]","kinase still bound, per cent of control [9]","kinase still bound, per cent of control [10]","kinase still bound, per cent of control [11]","kinase still bound, per cent of control [12]","kinase still bound, per cent of control [13]","kinase still bound, per cent of control [14]","kinase still bound, per cent of control [15]","kinase still bound, per cent of control [16]","kinase still bound, per cent of control [17]","kinase still bound, per cent of control [18]","kinase still bound, per cent of control [19]","kinase still bound, per cent of control [21]","kinase still bound, per cent of control [22]",also measured
COc1cc(C(=O)N2CCC(N3CCN(C)CC3)CC2)ccc1Nc1ncc2c(n1)N(C)c1ccccc1C(=O)N2C,90%,97%,82%,100%,97%,100%,100%,95%,77%,67%,90%,59%,72%,100%,51%,70%,42%,100%,100%,100%,"kinase still bound, per cent of control [3]: 98%; kinase still bound, per cent of control [20]: 100%; kinase still bound, per cent of control [23]: 100%; kinase still bound, per cent of control [24]: 96%; kinase still bound, per cent of control [25]: 94%; kinase still bound, per cent of control [26]: 100%; kinase still bound, per cent of control [27]: 95%; kinase still bound, per cent of control [28]: 100%; kinase still bound, per cent of control [29]: 100%; kinase still bound, per cent of control [30]: 100%; kinase still bound, per cent of control [31]: 100%; kinase still bound, per cent of control [32]: 71%; kinase still bound, per cent of control [33]: 66%; kinase still bound, per cent of control [34]: 87%; kinase still bound, per cent of control [35]: 39%; kinase still bound, per cent of control [36]: 97%; kinase still bound, per cent of control [37]: 100%; kinase still bound, per cent of control [38]: 83%; kinase still bound, per cent of control [39]: 100%; kinase still bound, per cent of control [40]: 100%"
COc1cc2ncn(-c3cc(OCc4ccccc4C(F)(F)F)c(C(N)=O)s3)c2cc1OC,97%,91%,73%,66%,100%,64%,79%,79%,40%,36%,100%,100%,16%,40%,0%,48%,100%,64%,100%,82%,"kinase still bound, per cent of control [23]: 100%; kinase still bound, per cent of control [24]: 100%; kinase still bound, per cent of control [25]: 81%; kinase still bound, per cent of control [26]: 66%; kinase still bound, per cent of control [27]: 83%; kinase still bound, per cent of control [28]: 100%; kinase still bound, per cent of control [29]: 48%; kinase still bound, per cent of control [30]: 100%; kinase still bound, per cent of control [31]: 100%; kinase still bound, per cent of control [32]: 61%; kinase still bound, per cent of control [33]: 92%; kinase still bound, per cent of control [34]: 100%; kinase still bound, per cent of control [35]: 89%; kinase still bound, per cent of control [36]: 78%; kinase still bound, per cent of control [37]: 31%; kinase still bound, per cent of control [38]: 85%; kinase still bound, per cent of control [39]: 100%; kinase still bound, per cent of control [40]: 100%"
N#CCNC(=O)c1ccc(-c2ccnc(Nc3ccc(N4CCOCC4)cc3)n2)cc1,100%,4.4%,100%,68%,100%,85%,75%,100%,62%,41%,100%,43%,18%,0.3%,11%,0.1%,65%,71%,96%,100%,"kinase still bound, per cent of control [20]: 100%; kinase still bound, per cent of control [23]: 59%; kinase still bound, per cent of control [24]: 100%; kinase still bound, per cent of control [25]: 100%; kinase still bound, per cent of control [26]: 100%; kinase still bound, per cent of control [27]: 59%; kinase still bound, per cent of control [28]: 100%; kinase still bound, per cent of control [29]: 9.4%; kinase still bound, per cent of control [30]: 100%; kinase still bound, per cent of control [31]: 89%; kinase still bound, per cent of control [32]: 90%; kinase still bound, per cent of control [33]: 74%; kinase still bound, per cent of control [34]: 100%; kinase still bound, per cent of control [35]: 47%; kinase still bound, per cent of control [36]: 100%; kinase still bound, per cent of control [37]: 87%; kinase still bound, per cent of control [38]: 77%; kinase still bound, per cent of control [39]: 100%; kinase still bound, per cent of control [40]: 76%"
O=C1NC(=O)/C(=C/c2ccc3nccc(-c4ccncc4)c3c2)S1,80%,0.2%,84%,37%,70%,3.7%,83%,88%,96%,1.7%,46%,90%,31%,0%,49%,31%,74%,100%,35%,83%,"kinase still bound, per cent of control [20]: 60%; kinase still bound, per cent of control [23]: 38%; kinase still bound, per cent of control [24]: 100%; kinase still bound, per cent of control [25]: 85%; kinase still bound, per cent of control [26]: 62%; kinase still bound, per cent of control [27]: 66% and 84%; kinase still bound, per cent of control [28]: 3.8%; kinase still bound, per cent of control [29]: 95%; kinase still bound, per cent of control [30]: 72%; kinase still bound, per cent of control [31]: 73%; kinase still bound, per cent of control [32]: 93%; kinase still bound, per cent of control [33]: 93%; kinase still bound, per cent of control [34]: 100%; kinase still bound, per cent of control [35]: 71%; kinase still bound, per cent of control [36]: 5%; kinase still bound, per cent of control [37]: 100%; kinase still bound, per cent of control [38]: 69%; kinase still bound, per cent of control [39]: 87%; kinase still bound, per cent of control [40]: 100%"

# Source: the kinase profiling compilation of Christmann-Franck et al. (2016)
